Calls of active or inactive are those of the source. No cut-off for these calls is given here.
Key:
[1] = test system: NCI-H460; experiment: Antitumor activity against human NCI-H460 cells xenografted in athymic nude mouse assessed as tumor growth inhibition at 5 mg/kg, iv administered every 2 days and measured after 2 weeks; assay type: functional; settings: NCI-H460, 336 h, read-out: TGI
[2] = test system: NCI-H460; experiment: Antitumor activity against human NCI-H460 cells xenografted in athymic nude mouse assessed as change in tumor weight at 10 to 20 mg/kg, iv administered every 2 days and measured after 2 weeks; assay type: functional, organism-based; settings: dose 10-20 mg/kg
[3] = test system: NCI-H460; experiment: Anti-tumor activity against human NCI-H460 cells assessed as cell viability incubated for 48 hrs by CCK-8 assay; assay type: functional, cell-based; settings: NCI-H460, 48 h
[4] = test system: HT-29; experiment: Anti-tumor activity against human HT-29 cells assessed as cell viability incubated for 48 hrs by CCK-8 assay; assay type: functional, cell-based
[5] = test system: MCF7; experiment: Anti-tumor activity against human MCF7 cells assessed as cell viability incubated for 48 hrs by CCK-8 assay; assay type: functional, cell-based
[6] = test system: HeLa; experiment: Anti-tumor activity against human HeLa cells assessed as cell viability incubated for 48 hrs by CCK-8 assay; assay type: functional, cell-based
[7] = test system: NCI-H460; experiment: Inhibition of colony formation in human NCI-H460 cells assessed as reduction in colony formation rate upto 12.5 uM incubated for 14 days by crystal violet staining based analysis; assay type: functional, cell-based; settings: time 14.0 day
[8] = test system: NCI-H460; experiment: Anti-migratory activity against human NCI-H460 cells assessed as inhibition of cell migration at 500 nM measured for 48 hrs by wound healing assay; assay type: functional, cell-based
[9] = test system: NCI-H460; experiment: Inhibition of cell invasion in human NCI-H460 cells assessed as decrease in number of invading cells at 500 nM incubated for 48 hrs by transwell assay; assay type: functional, cell-based
[10] = test system: NCI-H460; experiment: Inhibition of epithelial mesenchymal transition in human NCI-H460 cells assessed as decrease in N-cadherin protein expression by Western blotting analysis; assay type: functional, cell-based
[11] = test system: NCI-H460; experiment: Inhibition of epithelial mesenchymal transition in human NCI-H460 cells assessed as increase in E-cadherin protein expression by Western blotting analysis; assay type: functional, cell-based
[12] = test system: NCI-H460; experiment: Induction of apoptosis in human NCI-H460 cells assessed as apoptosis rate at 500 nM incubated for 24 hrs by annexin V-FITC/PI staining based flow cytometry analysis relative to control; assay type: functional
[13] = test system: NCI-H460; experiment: Induction of apoptosis in human NCI-H460 cells assessed as increase in BAX level at 500 nM incubated for 24 hrs by Western blot analysis; assay type: functional, cell-based
[14] = test system: NCI-H460; experiment: Induction of apoptosis in human NCI-H460 cells assessed as increase in caspase-3 level at 500 nM incubated for 24 hrs by Western blot analysis; assay type: functional, cell-based
[15] = test system: NCI-H460; experiment: Induction of apoptosis in human NCI-H460 cells assessed as downregulation of Bcl2 expression at 500 nM incubated for 24 hrs by Western blot analysis; assay type: functional, cell-based
[16] = test system: NCI-H460; experiment: Induction of DNA damage in human NCI-H460 cells assessed as increase in gammaH2AX positive cells by DAPI staining based confocal laser scanning microscopic analysis; assay type: functional, cell-based
[17] = test system: NCI-H460; experiment: Induction of DNA damage in human NCI-H460 cells assessed as increase in gammaH2AX positive cells by immunofluorescence analysis; assay type: functional, cell-based
[18] = test system: NCI-H460; experiment: Upregulation of gamma-H2AX expression in human NCI-H460 cells by Western blot analysis; assay type: functional, cell-based
[19] = test system: NCI-H460; experiment: Effect on DDX10 level in human NCI-H460 cells by TPP analysis; assay type: functional, cell-based
[20] = target: Probable ATP-dependent RNA helicase DDX10 (Homo sapiens) (UniProt Q13206); experiment: Binding affinity to DDX10 human NCI-H460 cells incubated for 60 mins at 37 to 67 degreeC by CETSA assay; assay type: cell-based
[21] = test system: NCI-H460; experiment: Downregulation of DDX10 expression in human NCI-H460 cells; assay type: functional, cell-based
[22] = test system: NCI-H460; experiment: Anti-tumor activity against DDX10 knockdown human NCI-H460 cells assessed as inhibition of cell viability; assay type: functional, cell-based
[23] = Hemolytic activity in BALB/c mouse Red blood cells assessed as effect on morphological structure at 10 to 100 uM incubated for 2 hrs; assay type: toxicity, cell-based; settings: erythrocyte, dose 10-100 µM
[24] = Hemolytic activity in BALB/c mouse Red blood cells assessed as hemolysis at 10 to 100 uM incubated for 2 hrs; assay type: toxicity, cell-based, Erythrocyte; settings: dose 10-100 µM, read-out: Activity
[25] = Toxicity in male athymic nude mouse assessed as change in body weight at 20 to 80 mg/kg, iv administered every 2 days and measured after 2 weeks; assay type: organism-based; settings: in vivo, 336 h, dose 20-80 mg/kg
[26] = Toxicity in male athymic nude mouse assessed as heart damage at 20 to 80 mg/kg, iv administered every 2 days and measured after 2 weeks; assay type: organism-based; settings: in vivo, 336 h, dose 20-80 mg/kg
[27] = Toxicity in male athymic nude mouse assessed as liver damage at 20 to 80 mg/kg, iv administered every 2 days and measured after 2 weeks; assay type: organism-based; settings: in vivo, 336 h, dose 20-80 mg/kg
[28] = Toxicity in male athymic nude mouse assessed as spleen damage at 20 to 80 mg/kg, iv administered every 2 days and measured after 2 weeks; assay type: organism-based; settings: in vivo, 336 h, dose 20-80 mg/kg
[29] = Toxicity in male athymic nude mouse assessed as lung damage at 20 to 80 mg/kg, iv administered every 2 days and measured after 2 weeks; assay type: organism-based; settings: in vivo, 336 h, dose 20-80 mg/kg
[30] = Toxicity in male athymic nude mouse assessed as kidney damage at 20 to 80 mg/kg, iv administered every 2 days and measured after 2 weeks; assay type: organism-based; settings: in vivo, 336 h, dose 20-80 mg/kg
[31] = Toxicity in iv dosed BALB/c mouse assessed as maximum tolerated dose administered every 2 days and measured after 2 weeks; assay type: organism-based; settings: in vivo
[32] = test system: NCI-H460; experiment: Antitumor activity against human NCI-H460 cells xenografted in iv dosed athymic nude mouse assessed as tumor growth inhibition administered every 2 days and measured after 2 weeks; assay type: functional, organism-based; settings: dose 5-20 mg/kg
[33] = Toxicity in male athymic nude mouse assessed as change in body weight at 5 to 20 mg/kg, iv administered every 2 days and measured after 2 weeks; assay type: organism-based; settings: in vivo, 336 h, dose 5-20 mg/kg
[34] = test system: NCI-H460; experiment: Antitumor activity against human NCI-H460 cells xenografted in athymic nude mouse assessed as change in tumor weight at 5 mg/kg, iv administered every 2 days and measured after 2 weeks; assay type: functional, organism-based
[35] = test system: NCI-H460; experiment: Antitumor activity against human NCI-H460 cells xenografted in athymic nude mouse assessed as change in tumor volume at 5 mg/kg, iv administered every 2 days and measured after 2 weeks; assay type: functional, organism-based
[36] = test system: NCI-H460; experiment: Antitumor activity against human NCI-H460 cells xenografted in athymic nude mouse assessed as tumor growth inhibition at 10 mg/kg, iv administered every 2 days and measured after 2 weeks; assay type: functional; settings: NCI-H460, 336 h, read-out: TGI
[37] = test system: NCI-H460; experiment: Antitumor activity against human NCI-H460 cells xenografted in athymic nude mouse assessed as tumor growth inhibition at 20 mg/kg, iv administered every 2 days and measured after 2 weeks; assay type: functional; settings: NCI-H460, 336 h, read-out: TGI
[38] = test system: NCI-H460; experiment: Antitumor activity against human NCI-H460 cells xenografted in athymic nude mouse assessed as increase in gamma-H2AX level in tumor at 5 mg/kg, iv administered every 2 days and measured after 2 weeks by immunofluorescence assay; assay type: functional, organism-based
[39] = test system: NCI-H460; experiment: Antitumor activity against human NCI-H460 cells xenografted in athymic nude mouse assessed as increase in gamma-H2AX level in tumor at 20 mg/kg, iv administered every 2 days and measured after 2 weeks by immunofluorescence assay; assay type: functional, organism-based
[40] = test system: NCI-H460; experiment: Antitumor activity against human NCI-H460 cells xenografted in athymic nude mouse assessed as increase in gamma-H2AX level in tumor at 20 mg/kg, iv administered every 2 days and measured after 2 weeks by Western blot assay; assay type: functional, organism-based
[41] = Toxicity in male athymic nude mouse assessed as morphological changes in heart at 5 to 20 mg/kg, iv administered every 2 days and measured after 2 weeks by H and E staining based analysis; assay type: organism-based; settings: in vivo, 336 h, dose 5-20 mg/kg
[42] = Toxicity in male athymic nude mouse assessed as morphological changes in liver at 5 to 20 mg/kg, iv administered every 2 days and measured after 2 weeks by H and E staining based analysis; assay type: organism-based; settings: in vivo, 336 h, dose 5-20 mg/kg
[43] = Toxicity in male athymic nude mouse assessed as morphological changes in spleen at 5 to 20 mg/kg, iv administered every 2 days and measured after 2 weeks by H and E staining based analysis; assay type: organism-based; settings: in vivo, 336 h, dose 5-20 mg/kg
[44] = Toxicity in male athymic nude mouse assessed as morphological changes in lung at 5 to 20 mg/kg, iv administered every 2 days and measured after 2 weeks by H and E staining based analysis; assay type: organism-based; settings: in vivo, 336 h, dose 5-20 mg/kg
[45] = Toxicity in male athymic nude mouse assessed as morphological changes in kidney at 5 to 20 mg/kg, iv administered every 2 days and measured after 2 weeks by H and E staining based analysis; assay type: organism-based; settings: in vivo, 336 h, dose 5-20 mg/kg
[46] = Toxicity in male athymic nude mouse assessed as tumor necrosis at 5 to 20 mg/kg, iv administered every 2 days and measured after 2 weeks by H and E staining based analysis; assay type: organism-based; settings: in vivo, 336 h, dose 5-20 mg/kg
[47] = Toxicity in male athymic nude mouse assessed as lung metastasis at 5 to 20 mg/kg, iv administered every 2 days and measured after 2 weeks by H and E staining based analysis; assay type: organism-based; settings: in vivo, 336 h, dose 5-20 mg/kg
[48] = Toxicity in male athymic nude mouse assessed as liver metastasis at 5 to 20 mg/kg, iv administered every 2 days and measured after 2 weeks by H and E staining based analysis; assay type: organism-based; settings: in vivo, 336 h, dose 5-20 mg/kg

Sequence of Probable ATP-dependent RNA helicase DDX10 (Homo sapiens) (Q13206 whole entry): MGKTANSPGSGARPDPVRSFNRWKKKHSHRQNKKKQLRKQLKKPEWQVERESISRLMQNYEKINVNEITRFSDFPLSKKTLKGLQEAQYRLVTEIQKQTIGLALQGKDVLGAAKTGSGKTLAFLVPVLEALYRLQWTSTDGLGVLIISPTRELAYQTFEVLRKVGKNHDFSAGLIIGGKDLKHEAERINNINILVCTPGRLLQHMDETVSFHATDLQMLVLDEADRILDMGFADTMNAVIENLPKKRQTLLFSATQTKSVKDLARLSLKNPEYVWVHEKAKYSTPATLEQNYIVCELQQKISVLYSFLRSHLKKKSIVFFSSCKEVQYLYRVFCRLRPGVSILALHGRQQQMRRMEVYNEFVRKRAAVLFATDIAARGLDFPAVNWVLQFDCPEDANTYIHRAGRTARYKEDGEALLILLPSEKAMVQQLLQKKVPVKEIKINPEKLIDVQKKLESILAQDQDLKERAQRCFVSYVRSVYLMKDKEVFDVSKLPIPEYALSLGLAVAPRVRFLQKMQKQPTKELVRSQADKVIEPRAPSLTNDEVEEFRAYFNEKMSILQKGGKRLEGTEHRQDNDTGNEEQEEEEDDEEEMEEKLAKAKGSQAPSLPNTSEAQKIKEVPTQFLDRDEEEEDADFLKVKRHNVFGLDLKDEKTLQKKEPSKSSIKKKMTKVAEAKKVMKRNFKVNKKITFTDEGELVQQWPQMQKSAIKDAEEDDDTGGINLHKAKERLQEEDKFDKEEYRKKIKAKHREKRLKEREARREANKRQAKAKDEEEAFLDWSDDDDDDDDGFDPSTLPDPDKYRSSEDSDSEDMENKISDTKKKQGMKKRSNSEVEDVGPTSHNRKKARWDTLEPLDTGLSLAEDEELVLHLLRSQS

Compound: COc1ccc([Se]c2c(-c3ccccc3)ncc3cccnc23)cc1
- inhibition in vivo at 5 mg/kg [1]: 60%
- Activity [2]: inactive
- IC50 [3]: 1590 nM
- Activity [4]: inactive
- Activity [5]: inactive
- Activity [6]: inactive
- inhibition [7]: Active
- Activity [8]: Active
- inhibition [9]: Active
- N-cadherin expression decrease (qualitative activity) [10]: Active
- inhibition [11]: Active
- Activity [12]: 42.6%
- Activity [13]: Active
- Activity [14]: Active
- Activity [15]: Active
- Activity [16]: Active
- Activity [17]: Active
- Activity [18]: Active
- Activity [19]: Active
- Activity [20]: Active
- Activity [21]: Active
- Activity [22]: Active
- Activity [23]: Non-toxic
- hemolysis at 2 h, 100 µM [24]: < 1%
- Activity [25]: Non-toxic
- Activity [26]: Non-toxic
- Activity [27]: Non-toxic
- Activity [28]: Non-toxic
- Activity [29]: Non-toxic
- Activity [30]: Non-toxic
- MTD at 336 h [31]: 160 mg/kg
- TGI [32]: Dose-dependent-effect
- Activity [33]: Non-toxic
- Activity [34]: Active
- Activity [35]: Active
- inhibition in vivo at 10 mg/kg [36]: 78%
- inhibition in vivo at 20 mg/kg [37]: 88%
- Activity [38]: Active
- Activity [39]: Active
- Activity [40]: Active
- Activity [41]: Non-toxic
- Activity [42]: Non-toxic
- Activity [43]: Non-toxic
- Activity [44]: Non-toxic
- Activity [45]: Non-toxic
- Activity [46]: Non-toxic
- Activity [47]: Non-toxic
- Activity [48]: Non-toxic
